Columns and labels:
[1] = Toxicokinetic evaluation in rats; settings: rat, in vivo; for AUC(0-t): Crl:CD(SD)IGS BR, po, 10 mg/kg/day, AUC0-24 h
Procedure: For toxicokinetic evaluation, all animals were observed twice daily for mortality and moribundity. Blood samples were collected from three animals/sex/group at 0 (pre-dose), 1, 2, 4, 8 and 24 hours after dose administration on study days 0 and 87. All toxicokinetic animals were euthanized and discarded following the final blood collection (study day 88).

[2] = 13-week oral toxicity study in rats (body weight, food consumption, clinical pathology, organ weights); type: in vivo, rat; settings: for mean cumulative body weight gain, lower than control: end of 13-week study; for mean body weight, lower than control: end of study
Procedure: One hundred and forty Crl:CD®(SD)IGS BR rats were divided into 7 groups of 20 rats (ten male and ten female). […] Individual body weights were recorded at least weekly, beginning approximately two weeks prior to test article administration (study week-2). Mean body weights and mean body weight changes were calculated for the corresponding intervals. Final body weights (fasted) were recorded prior to the scheduled necropsy.
For toxicology assessment, all animals were observed three times daily for mortality and moribundity. Clinical examinations were performed daily and detailed physical examinations were performed weekly. Following 13 weeks of dose administration, all surviving animals were euthanized.

in vivo = type: in vivo; settings: female dogs
Procedure: Eighteen male and eighteen female beagle dogs were received from Ridglan Farms, Mt. Horeb, Wis. […] Each group consisted of four males and four females. All animals/sex/group were scheduled for the primary necropsy at the end of the 13-week treatment period.
The animals were observed twice daily for mortality and moribundity. Clinical examinations were performed daily at the time of dosing and approximately 1-2 and approximately 3 hours following dose administration. Detailed physical examinations were performed weekly. Clinical pathology evaluations (hematology, serum chemistry and urinalysis) were performed prior to the initiation of dose administration (study week-1) and prior to the scheduled necropsy (study week 13). Individual body weights were recorded weekly, beginning approximately two weeks prior to test article administration (study week-2). Mean body weights and mean body weight changes were calculated for each corresponding interval. Final body weights (fasted) were recorded prior to the scheduled necropsy. […] Gross lesions were also examined from the 2.0 and 6.0 mg/kg/day groups.

## Cl.Clc1ccc([C@@]23CNC[C@@H]2C3)cc1Cl (single isomer, unassigned) [(+)-1-(3,4-dichlorophenyl)-3-azabicyclo[3.1.0]hexane hydrochloride]
[1]; female
  AUC(0-t): 14.3 µg·h/mL
[1]; male
  AUC(0-t): 8.13 µg·h/mL
[1]
  exposure versus dose: increased dose-dependently
[2]; both sexes, Crl:CD(SD)IGS BR, rat, in vivo, rats, oral administration for 13 weeks, read-out: no-observed-adverse-effect level (NOAEL)
  NOAEL at 13 weeks: 10 mg/kg/day
[2]; female rats, 25 mg/kg/day oral
  mean cumulative body weight gain, lower than control: 13%
[2]; female rats, 25 mg/kg/day, first week
  food consumption, lower than control: 16%
[2]; female rats, 60 mg/kg/day oral
  mean cumulative body weight gain, lower than control: 13%
  mean body weight, lower than control: 9%
[2]; female rats, 60 mg/kg/day, first week
  food consumption, lower than control: 32%
[2]; female rats, 60 mg/kg/day, second week
  food consumption, lower than control: 11%
[2]; female rats, 10 MG/KG/DAY group, WEEK −2 TO −1 (before dosing)
  weekly food consumption, MEAN: 18. C/ANIMAL/DAY
[2]; female rats, 10 MG/KG/DAY, WEEK 0 TO 1
  weekly food consumption, MEAN: 17. C/ANIMAL/DAY
[2]; female rats, 10 MG/KG/DAY, WEEK 1 TO 2
  weekly food consumption, MEAN: 19. C/ANIMAL/DAY
[2]; female rats, 10 MG/KG/DAY, WEEK 2 TO 3
  weekly food consumption, MEAN: 20. C/ANIMAL/DAY
[2]; female rats, 10 MG/KG/DAY, WEEK 3 TO 4
  weekly food consumption, MEAN: 20. C/ANIMAL/DAY
[2]; female rats, 10 MG/KG/DAY, WEEK 4 TO 5
  weekly food consumption, MEAN: 19. C/ANIMAL/DAY
[2]; female rats, 10 MG/KG/DAY, WEEK 5 TO 6
  weekly food consumption, MEAN: 18. C/ANIMAL/DAY
[2]; female rats, 10 MG/KG/DAY, WEEK 6 TO 7
  weekly food consumption, MEAN: 18. C/ANIMAL/DAY
[2]; female rats, 10 MG/KG/DAY, WEEK 7 TO 8
  weekly food consumption, MEAN: 18. C/ANIMAL/DAY
[2]; female rats, 10 MG/KG/DAY, WEEK 8 TO 9
  weekly food consumption, MEAN: 18. C/ANIMAL/DAY
[2]; female rats, 10 MG/KG/DAY, WEEK 9 TO 10
  weekly food consumption, MEAN: 18. C/ANIMAL/DAY
[2]; female rats, 10 MG/KG/DAY, WEEK 10 TO 11
  weekly food consumption, MEAN: 18. C/ANIMAL/DAY
[2]; female rats, 10 MG/KG/DAY, WEEK 11 TO 12
  weekly food consumption, MEAN: 18. C/ANIMAL/DAY
[2]; female rats, 10 MG/KG/DAY, WEEK 12 TO 13
  weekly food consumption, MEAN: 17. C/ANIMAL/DAY
[2]; female rats, 25 MG/KG/DAY group, WEEK −2 TO −1 (before dosing)
  weekly food consumption, MEAN: 17. C/ANIMAL/DAY
[2]; female rats, 25 MG/KG/DAY, WEEK 0 TO 1
  weekly food consumption, MEAN: 16.** C/ANIMAL/DAY
[2]; female rats, 25 MG/KG/DAY, WEEK 1 TO 2
  weekly food consumption, MEAN: 20. C/ANIMAL/DAY
[2]; female rats, 25 MG/KG/DAY, WEEK 2 TO 3
  weekly food consumption, MEAN: 10. C/ANIMAL/DAY
[2]; female rats, 25 MG/KG/DAY, WEEK 3 TO 4
  weekly food consumption, MEAN: 20. C/ANIMAL/DAY
[2]; female rats, 25 MG/KG/DAY, WEEK 4 TO 5
  weekly food consumption, MEAN: 18. C/ANIMAL/DAY
[2]; female rats, 25 MG/KG/DAY, WEEK 5 TO 6
  weekly food consumption, MEAN: 19. C/ANIMAL/DAY
[2]; female rats, 25 MG/KG/DAY, WEEK 6 TO 7
  weekly food consumption, MEAN: 18. C/ANIMAL/DAY
[2]; female rats, 25 MG/KG/DAY, WEEK 7 TO 8
  weekly food consumption, MEAN: 17. C/ANIMAL/DAY
[2]; female rats, 25 MG/KG/DAY, WEEK 8 TO 9
  weekly food consumption, MEAN: 19. C/ANIMAL/DAY
[2]; female rats, 25 MG/KG/DAY, WEEK 9 TO 10
  weekly food consumption, MEAN: 18. C/ANIMAL/DAY
[2]; female rats, 25 MG/KG/DAY, WEEK 10 TO 11
  weekly food consumption, MEAN: 18. C/ANIMAL/DAY
[2]; female rats, 25 MG/KG/DAY, WEEK 11 TO 12
  weekly food consumption, MEAN: 18. C/ANIMAL/DAY
[2]; female rats, 25 MG/KG/DAY, WEEK 12 TO 13
  weekly food consumption, MEAN: 17. C/ANIMAL/DAY
[2]; female rats, 60 MG/KG/DAY group, WEEK −2 TO −1 (before dosing)
  weekly food consumption, MEAN: 17. C/ANIMAL/DAY
[2]; female rats, 60 MG/KG/DAY, WEEK 0 TO 1
  weekly food consumption, MEAN: 13.** C/ANIMAL/DAY
[2]; female rats, 60 MG/KG/DAY, WEEK 1 TO 2
  weekly food consumption, MEAN: 17.* C/ANIMAL/DAY
[2]; female rats, 60 MG/KG/DAY, WEEK 2 TO 3
  weekly food consumption, MEAN: 18. C/ANIMAL/DAY
[2]; female rats, 60 MG/KG/DAY, WEEK 3 TO 4
  weekly food consumption, MEAN: 16. C/ANIMAL/DAY
[2]; female rats, 60 MG/KG/DAY, WEEK 4 TO 5
  weekly food consumption, MEAN: 17. C/ANIMAL/DAY
[2]; female rats, 60 MG/KG/DAY, WEEK 5 TO 6
  weekly food consumption, MEAN: 18. C/ANIMAL/DAY
[2]; female rats, 60 MG/KG/DAY, WEEK 6 TO 7
  weekly food consumption, MEAN: 18. C/ANIMAL/DAY
[2]; female rats, 60 MG/KG/DAY, WEEK 7 TO 8
  weekly food consumption, MEAN: 18. C/ANIMAL/DAY
[2]; female rats, 60 MG/KG/DAY, WEEK 8 TO 9
  weekly food consumption, MEAN: 18. C/ANIMAL/DAY
[2]; female rats, 60 MG/KG/DAY, WEEK 9 TO 10
  weekly food consumption, MEAN: 17. C/ANIMAL/DAY
[2]; female rats, 60 MG/KG/DAY, WEEK 10 TO 11
  weekly food consumption, MEAN: 17. C/ANIMAL/DAY
[2]; female rats, 60 MG/KG/DAY, WEEK 11 TO 12
  weekly food consumption, MEAN: 18. C/ANIMAL/DAY
[2]; female rats, 60 MG/KG/DAY, WEEK 12 TO 13
  weekly food consumption, MEAN: 17. C/ANIMAL/DAY
[2]; male rats, 25 mg/kg/day oral
  mean cumulative body weight gain, lower than control: 16%
  mean body weight, lower than control: 10%
[2]; male rats, 25 mg/kg/day, first week
  food consumption, lower than control: 8%
[2]; male rats, 60 mg/kg/day oral
  mean cumulative body weight gain, lower than control: 30%
  mean body weight, lower than control: 18%
[2]; male rats, 60 mg/kg/day, first week
  food consumption, lower than control: 19%
[2]; male rats, 60 mg/kg/day, second week
  food consumption, lower than control: 4%
[2]; rat, in vivo, 60 mg/kg/day
  alanine aminotransferase (ALT) level: higher
  alkaline phosphatase (ALP), higher: 35-55%
  bilirubin, higher: 35-55%
In vivo; 20 mg/kg/day, end of 13-week study
  mean total cumulative body weight change, lower than control: 65%
In vivo; 20 mg/kg/day, first week of dose administration
  mean food consumption, lower than control: 23%
In vivo; 20 mg/kg/day, study week 13
  mean body weight, lower than control: 9%
In vivo; 2.0 MG/KG/DAY group, WEEK −1 TO 0 (before dosing)
  weekly food consumption, MEAN: 295. C/ANIMAL/DAY
In vivo; 2.0 MG/KG/DAY, WEEK 0 TO 1
  weekly food consumption, MEAN: 291. C/ANIMAL/DAY
In vivo; 2.0 MG/KG/DAY, WEEK 1 TO 2
  weekly food consumption, MEAN: 319. C/ANIMAL/DAY
In vivo; 2.0 MG/KG/DAY, WEEK 2 TO 3
  weekly food consumption, MEAN: 361. C/ANIMAL/DAY
In vivo; 2.0 MG/KG/DAY, WEEK 3 TO 4
  weekly food consumption, MEAN: 358. C/ANIMAL/DAY
In vivo; 2.0 MG/KG/DAY, WEEK 4 TO 5
  weekly food consumption, MEAN: 369. C/ANIMAL/DAY
In vivo; 2.0 MG/KG/DAY, WEEK 5 TO 6
  weekly food consumption, MEAN: 360. C/ANIMAL/DAY
In vivo; 2.0 MG/KG/DAY, WEEK 6 TO 7
  weekly food consumption, MEAN: 393. C/ANIMAL/DAY
In vivo; 2.0 MG/KG/DAY, WEEK 7 TO 8
  weekly food consumption, MEAN: 360. C/ANIMAL/DAY
In vivo; 2.0 MG/KG/DAY, WEEK 8 TO 9
  weekly food consumption, MEAN: 383. C/ANIMAL/DAY
